Data from patent US8841257B2, “Inhibitors of STAT3 and uses thereof” (Board of Regents, The University of Texas System, priority 2009, dated 2014).

Experiments:
[1] = tested on: MDA-MB-231 and SUM149 cells; experiment: Vasculogenic mimicry exhibited by breast cancer cells; type: cell-based; conditions: 5 μM in DMSO; 24 hours
Method: Cells were treated with 5 μM of the compounds from examples 1 and 8 formulated in DMSO or with DMSO alone as a control. To highlight the matrix-associated vascular channels that were formed, cells were stained with periodic acid-Schiff (PAS) reagent. Representative photographs were taken at 24 hours at —10 magnification. Each experiment was repeated 3 times.

[2] = tested on: MDA7, MDA-MB-231, SUM149, and SUM190; experiment: Anchorage-independent growth in soft agar, four breast tumor models; type: cell-based; conditions: MDA7, MDA-MB-231, SUM149, SUM190; 28 days
Method: Assay for anchorage-independent growth in soft agar Cells (5×10^5) were suspended in 1× DMEM/HEPES, 10% heat-inactivated FBS, 0.13% bicarbonate, and 0.33% BBL agar. The cells were plated on 1% base agar plates (60 mm) containing 1× DMEM/HEPES, 10% heat-inactivated FBS, and 1% BBL agar. Fresh serum-containing medium was fed to the cells on 3-day intervals. The dishes were then incubated at 37° C. with 5% CO2 for 28 days. The colonies that grew in soft agar were photographed and counted. Data are expressed as the number of colonies formed per plate±S.E.M. and three plates were counted per cell line.

IL-6 = experiment: Inhibition of IL-6 expression in lung tumor cells (ELISA); type: cell-based, human; conditions: 5 μM; HCC-827
Method: Inhibition of IL-6 expression in lung tumor cells. HCC-827 cells were seeded in 6-well plates at a density of 4×10^5 cells/well. The following day, the media was replaced with fresh media containing low serum and treated the compound from Example 1 at a concentration of 5 μM. The cells were incubated at 37° C. and the supernatant was collected at 2, 4, 24, 48, and 72 hours post treatment. The supernatant was centrifuged at 2000 rpm for 3 minutes, transferred to fresh tubes and stored at −20 for further analysis. The supernatants were diluted six times with distilled water. The supernatants were then subjected to ELISA analysis for expression of Interleukin-6 (IL-6) as per the manufacturer's protocol (Hs Human IL-6 kit, R&D Systems, Minneapolis, Minn. USA, Cat #HS600B). The amount of secreted IL-6 was calculated and quantified based on the standards and plotted as bar graphs using Microsoft excel. […] Stat3 expresses IL-6 and IL-6 stimulates Stat3 activation, resulting in angiogenesis, cell cycling and cell survival.

STAT3 = STAT3 (Homo sapiens, UniProt P40763); experiment: EGF-stimulated STAT3 phosphorylation in MDA-MB-468 cells; type: cell-based; set-up: host or cells: MDA-MB-468 breast tumor cells; conditions: 1.5 hr prodrug, then EGF 100 ng/mL 30 min
STAT3, sequence (P40763 whole entry): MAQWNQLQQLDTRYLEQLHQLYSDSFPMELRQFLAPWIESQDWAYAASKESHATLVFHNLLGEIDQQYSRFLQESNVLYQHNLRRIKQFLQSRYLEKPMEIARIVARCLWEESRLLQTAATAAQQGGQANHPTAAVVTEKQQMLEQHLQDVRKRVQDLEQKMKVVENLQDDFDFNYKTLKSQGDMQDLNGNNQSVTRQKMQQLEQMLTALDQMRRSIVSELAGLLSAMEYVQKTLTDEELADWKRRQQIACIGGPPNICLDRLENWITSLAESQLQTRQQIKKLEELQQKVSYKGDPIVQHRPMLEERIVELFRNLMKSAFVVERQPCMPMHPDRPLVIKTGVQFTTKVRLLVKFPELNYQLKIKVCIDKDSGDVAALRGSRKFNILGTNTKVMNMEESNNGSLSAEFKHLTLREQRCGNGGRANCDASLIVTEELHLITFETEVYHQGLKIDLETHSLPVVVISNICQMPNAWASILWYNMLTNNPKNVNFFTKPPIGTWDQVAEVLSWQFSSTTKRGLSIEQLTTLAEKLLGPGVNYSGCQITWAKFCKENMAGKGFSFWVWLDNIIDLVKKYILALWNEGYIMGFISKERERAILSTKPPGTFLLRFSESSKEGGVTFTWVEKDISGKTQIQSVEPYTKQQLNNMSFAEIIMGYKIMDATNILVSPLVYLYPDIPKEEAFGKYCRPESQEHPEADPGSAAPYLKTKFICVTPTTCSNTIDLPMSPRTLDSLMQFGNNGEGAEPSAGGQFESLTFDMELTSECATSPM
Method: Effect of prodrug on the phosphorylation of STAT3, STAT5 and Akt in response to Epidermal Growth Factor stimulation. MDA-MB-468 cells were prepared as above. Prodrugs were prepared as 10 mM stock solutions in DMSO and aliquots were added to the culture media to give the correct final concentrations. After 1.5 hr EGF was added at 100 ng/mL. After 30 minutes cells were collected and lysed and proteins were separated by PAGE and transferred to three PVDF filters as above. The first filter was blocked with 5% bovine serum albumin and probed for total and phosphoStat3 as above. The second filter was probed for phosphoSer473Akt and total Akt using appropriate antibodies and similar detection procedures to those used for STAT3. The third filter was probed for phosphoTyr699 Stat5 and total STAT5 using appropriate antibodies and similar detection procedures to those used for STAT3.

STAT1 = target: T1, STAT1 (Homo sapiens, UniProt P42224); experiment: IFNγ-stimulated phosphoStat1 in BT20 cells; type: cell-based; set-up: endogenous in cells; host or cells: BT20 breast tumor cells; conditions: 5 μM, 2 h, then IFNγ 25 ng/mL, 20 and 45 min
T1 sequence (P42224 1-750): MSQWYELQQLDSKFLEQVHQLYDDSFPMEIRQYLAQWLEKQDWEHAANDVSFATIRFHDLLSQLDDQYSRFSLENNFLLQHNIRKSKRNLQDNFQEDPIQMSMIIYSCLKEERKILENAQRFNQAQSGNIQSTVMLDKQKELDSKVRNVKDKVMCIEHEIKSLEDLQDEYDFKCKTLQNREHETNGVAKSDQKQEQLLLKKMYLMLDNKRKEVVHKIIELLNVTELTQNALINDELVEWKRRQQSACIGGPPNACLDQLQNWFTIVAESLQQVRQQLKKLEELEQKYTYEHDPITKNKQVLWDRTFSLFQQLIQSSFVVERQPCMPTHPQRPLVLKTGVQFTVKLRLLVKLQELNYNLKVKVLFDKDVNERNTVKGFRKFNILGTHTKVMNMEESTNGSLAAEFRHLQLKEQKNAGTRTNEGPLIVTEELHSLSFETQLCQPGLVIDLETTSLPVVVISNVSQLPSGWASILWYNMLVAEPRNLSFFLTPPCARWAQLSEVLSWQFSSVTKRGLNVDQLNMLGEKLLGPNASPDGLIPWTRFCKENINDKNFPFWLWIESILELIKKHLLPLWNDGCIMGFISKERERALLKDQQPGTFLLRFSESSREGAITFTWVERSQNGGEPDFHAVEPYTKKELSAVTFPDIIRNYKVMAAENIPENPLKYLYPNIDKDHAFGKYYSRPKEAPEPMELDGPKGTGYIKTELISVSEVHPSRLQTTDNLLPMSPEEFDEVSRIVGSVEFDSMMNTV
Method: The compounds are selective for STAT3 over STAT1 in BT20 breast tumor cells. BT20 cells prepared as above and were treated with 5 μM of the compound of Example 1 for two hours then were treated with 25 ng/mL of interferon γ (IFNγ). […] (FIG. 4, bottom panel).

Compound | vasculogenic mimicry [1] | colony formation in soft agar, four breast tumor models [2] | time for which IL-6 expression is inhibited (IL-6) [h] | EGF-induced increase in Stat3 phosphorylation (STAT3) | IFNγ-stimulated increase in phosphoStat1 (STAT1)
C/C(=C\C(=O)N[C@H]1CCc2cccc3c2N(C1=O)[C@H](C(=O)N[C@H](C)CCC(N)=O)C3)c1ccc(C(F)(F)P(=O)(OCOC(=O)C(C)(C)C)OCOC(=O)C(C)(C)C)cc1 [Example 1, (2E)-3-[4-[[bis[(2,2-dimethyl-1-oxopropoxy)methoxy]phosphinyl]difluoromethyl]phenyl]-but-2-enoyl-Haic-(R)-4-aminopentamide] | Significant reduction | effectively inhibited colony formation | 48 | effective at inhibiting | did not inhibit
CCCC[C@H](NC(=O)/C=C(\C)c1ccc(C(F)(F)P(=O)(OCOC(=O)C(C)(C)C)OCOC(=O)C(C)(C)C)cc1)C(=O)N1C[C@H]2CC2[C@H]1C(=O)N[C@@H](CCC(N)=O)[C@@H](C)OCc1ccccc1 (stereo partly drawn) [Example 16, (2E)-3-[4-[[bis[(2,2-dimethyl-1-oxopropoxy)methoxy]phosphinyl]difluoromethyl]phenyl]-but-2-enoyl-norleucinyl-(2S,3R,4S)-methanoprolinyl-(4S,5R)-4-amino-5-benzyloxyhexamide] | – | – | – | effective at inhibiting | –
